Reference: the NIST ThermoML archive (doi:10.1021/je100300s)

Assay: refractive index (Na D-line) (dimensionless); xn = mol fraction of the nth substance listed
Details: 101 kPa, Liquid, Standard Abbe refractometry

CC(O)CN (centres undefined) [1-amino-2-propanol] + O
refractive index
Details | 313.15 K | 318.15 K | 323.15 K | 328.15 K | 333.15 K
x1 = 0.05 | – | 1.35269 | 1.35169 | 1.35059 | 1.35023
x1 = 0.07 | – | 1.36047 | 1.35931 | 1.35816 | 1.35711
x1 = 0.0986 | – | 1.37079 | 1.36955 | 1.36821 | 1.36712
x1 = 0.1993 | – | 1.39563 | 1.39469 | 1.39247 | 1.39103
x1 = 0.3003 | – | 1.41051 | 1.40883 | 1.4072 | 1.40563
x1 = 0.3955 | – | 1.41987 | 1.41801 | 1.4164 | 1.4146
x1 = 0.4929 | 1.4273 | 1.42548 | 1.42386 | 1.4226 | 1.42038
x1 = 0.5995 | 1.43187 | 1.43017 | 1.42857 | 1.42697 | 1.42445
x1 = 0.7002 | 1.43493 | 1.43243 | 1.43146 | 1.43006 | 1.42775
x1 = 0.8006 | 1.43715 | 1.43532 | 1.43369 | 1.43134 | 1.42949
x1 = 0.8992 | 1.43889 | 1.43691 | 1.4349 | 1.43292 | 1.43089
x1 = 1 | 1.44009 | 1.43817 | 1.43631 | 1.43405 | 1.43208
